In patent US20230055237A1, “COMPOUNDS AND METHODS FOR THE TREATMENT OF CYSTIC FIBROSIS” (Flatley Discovery Lab, LLC, priority 2019, published 2023):

Target: T1, CFTR (Homo sapiens, UniProt P13569, DEL508-508)
T1 construct: Primary CF airway epithelial cells were obtained from the UNC Cystic Fibrosis Tissue Procurement and Cell Culture Core; host or cells: primary CF airway epithelial cells, differentiated at the air-liquid interface
Experiment: Equivalent current assay in primary CF airway epithelial cells (NAUC, combination with 1st site corrector FDL169 or VX-809)
Type: cell-based
Conditions: 37° C., 24 h; for Nauc @ 10 μM: test compound 10 μM in combination with 1st site corrector VX-809 (3 μM)

[1] = test compound 1 μM in combination with 1st site corrector VX-809 (3 μM)
[2] = test compound 3 μM in combination with 1st site corrector VX-809 (3 μM)

T1 sequence (P13569 with tags, fused parts or gaps DEL508-508): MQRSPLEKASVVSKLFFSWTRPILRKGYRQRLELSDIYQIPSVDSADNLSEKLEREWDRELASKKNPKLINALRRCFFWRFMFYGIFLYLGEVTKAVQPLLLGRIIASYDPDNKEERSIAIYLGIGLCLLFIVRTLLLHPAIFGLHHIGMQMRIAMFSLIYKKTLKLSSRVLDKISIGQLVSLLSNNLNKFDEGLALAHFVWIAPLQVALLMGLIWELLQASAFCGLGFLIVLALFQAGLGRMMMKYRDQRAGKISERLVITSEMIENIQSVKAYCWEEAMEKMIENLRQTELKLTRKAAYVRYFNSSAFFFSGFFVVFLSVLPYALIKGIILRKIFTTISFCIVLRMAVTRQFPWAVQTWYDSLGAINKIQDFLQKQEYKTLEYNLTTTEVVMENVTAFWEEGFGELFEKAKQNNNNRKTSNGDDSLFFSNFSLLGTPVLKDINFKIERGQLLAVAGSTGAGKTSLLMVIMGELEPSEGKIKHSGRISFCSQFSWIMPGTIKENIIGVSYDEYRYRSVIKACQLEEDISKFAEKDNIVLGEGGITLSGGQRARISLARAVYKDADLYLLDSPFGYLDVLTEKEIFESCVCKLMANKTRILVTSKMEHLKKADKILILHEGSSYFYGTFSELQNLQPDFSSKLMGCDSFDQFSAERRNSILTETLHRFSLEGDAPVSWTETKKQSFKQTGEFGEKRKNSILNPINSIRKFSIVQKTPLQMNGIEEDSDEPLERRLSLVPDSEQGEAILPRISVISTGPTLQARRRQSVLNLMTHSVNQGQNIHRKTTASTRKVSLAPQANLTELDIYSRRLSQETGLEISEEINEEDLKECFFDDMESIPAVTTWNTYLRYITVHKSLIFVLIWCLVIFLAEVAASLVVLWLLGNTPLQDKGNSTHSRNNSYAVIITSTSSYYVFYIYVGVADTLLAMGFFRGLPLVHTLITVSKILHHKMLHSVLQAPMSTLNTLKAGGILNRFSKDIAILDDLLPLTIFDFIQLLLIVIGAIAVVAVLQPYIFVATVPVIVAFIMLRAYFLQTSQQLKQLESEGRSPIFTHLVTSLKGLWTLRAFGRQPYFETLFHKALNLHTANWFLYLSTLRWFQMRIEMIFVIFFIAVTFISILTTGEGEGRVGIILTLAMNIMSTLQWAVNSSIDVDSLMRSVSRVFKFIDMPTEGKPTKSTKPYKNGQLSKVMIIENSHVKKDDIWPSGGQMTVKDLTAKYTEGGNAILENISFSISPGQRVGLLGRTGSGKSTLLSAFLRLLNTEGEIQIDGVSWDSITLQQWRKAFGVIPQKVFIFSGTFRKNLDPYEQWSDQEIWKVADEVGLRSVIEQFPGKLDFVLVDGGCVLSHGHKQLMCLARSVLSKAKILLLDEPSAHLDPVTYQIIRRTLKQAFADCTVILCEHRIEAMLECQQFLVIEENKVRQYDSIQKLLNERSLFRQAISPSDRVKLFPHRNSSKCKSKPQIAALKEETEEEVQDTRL

| SMILES | Nauc @ 1 μM [1] | Nauc @ 3 μM [2] | Nauc @ 10 μM | Nauc @ 1 μM (test compound 1 μM in combination with 1st site corrector FDL169 (3 μM)) | Nauc @ 3 μM (test compound 3 μM in combination with 1st site corrector FDL169 (3 μM)) |
| --- | --- | --- | --- | --- | --- |
| NC(=O)[C@H]1[C@@H](C(=O)Nc2cc(Cl)cc(Cl)c2)[C@H]2CC(F)(F)CN2[C@]12C(=O)Nc1c(Cl)cc(Cl)cc12 [Example 228, (1′R,2′S,3R,7a′R)-5,7-dichloro-N1′-(3,5-dichlorophenyl)-6′,6′-difluoro-2-oxo-1′,2′,5′,6′,7′,7a′-hexahydrospiro[indoline-3,3′-pyrrolizine]-1′,2′-dicarboxamide] | + (NAUC “+” refers to an observed NAUC <140% of positive control) | + (NAUC “+” refers to an observed NAUC <140% of positive control) | + (NAUC “+” refers to an observed NAUC <140% of positive control) | – | – |
| CONC(=O)[C@H]1[C@@H](C(=O)Nc2cc(Cl)cc(Cl)c2)[C@H]2CCCN2C12C(=O)Nc1c(Cl)cc(Cl)cc12 (stereo partly drawn) [Example 233, (1′R,2′S,7a′R)-5,7-dichloro-N1′-(3,5-dichlorophenyl)-N2′-methoxy-2-oxo-1′,2′,5′,6′,7′,7a′-hexahydrospiro[indoline-3,3′-pyrrolizine]-1,2′-dicarboxamide] | ++ (NAUC “++” refers to an observed NAUC 170-140% of positive control) | +++ (NAUC “+++” refers to an observed NAUC>170% of positive control) | +++ (NAUC “+++” refers to an observed NAUC>170% of positive control) | – | – |
| NNC(=O)[C@H]1[C@@H](C(=O)Nc2cc(Cl)cc(Cl)c2)[C@H]2CCCN2C12C(=O)Nc1c(Cl)cc(Cl)cc12 (stereo partly drawn) [Example 236, (1′R,2′S,7a′R)-5,7-dichloro-N-(3,5-dichlorophenyl)-2′-(hydrazinecarbonyl)-2-oxo-1′,2′,5′,6′,7′,7a′-hexahydrospiro[indoline-3,3′-pyrrolizine]-1′-carboxamide] | + (NAUC “+” refers to an observed NAUC <140% of positive control) | ++ (NAUC “++” refers to an observed NAUC 170-140% of positive control) | +++ (NAUC “+++” refers to an observed NAUC>170% of positive control) | – | – |
| C[C@]1(O)C[C@@H]2[C@H](C(=O)Nc3cc(Cl)cc(Cl)c3)[C@H](C(N)=O)[C@@]3(C(=O)Nc4c(Cl)cc(Cl)cc43)N2C1 [Example 244, (1′R,2′S,6′S,7a′R)-5,7-dichloro-N1′-(3,5-dichlorophenyl)-6′-hydroxy-6′-methyl-2-oxo-1′,2′,5′,6′,7′,7a′-hexahydrospiro[indoline-3,3′-pyrrolizine]-1,2′-dicarboxamide] | + (NAUC “+” refers to an observed NAUC <140% of positive control) | + (NAUC “+” refers to an observed NAUC <140% of positive control) | + (NAUC “+” refers to an observed NAUC <140% of positive control) | – | – |
| C[C@]1(O)C[C@@H]2[C@H](C(=O)Nc3cc(Cl)cc(Cl)c3)[C@H](C(=O)NO)[C@@]3(C(=O)Nc4c(Cl)cc(Cl)cc43)N2C1 [Example 245, (1′R,2′S,6′S,7a′R)-5,7-dichloro-N1′-(3,5-dichlorophenyl)-N2′,6′-dihydroxy-6′-methyl-2-oxo-1′,2′,5′,6′,7′,7a′-hexahydrospiro[indoline-3,3′-pyrrolizine]-1′,2′-dicarboxamide] | + (NAUC “+” refers to an observed NAUC <140% of positive control) | ++ (NAUC “++” refers to an observed NAUC 170-140% of positive control) | +++ (NAUC “+++” refers to an observed NAUC>170% of positive control) | – | – |
| CONC(=O)[C@H]1[C@@H](C(=O)Nc2cc(Cl)cc(Cl)c2)[C@H]2C[C@](C)(O)CN2[C@]12C(=O)Nc1c(Cl)cc(Cl)cc12 [Example 246, (1′R,2′S,6′S,7a′R)-5,7-dichloro-N1′-(3,5-dichlorophenyl)-6′-hydroxy-N2′-methoxy-6′-methyl-2-oxo-1′,2′,5′,6′,7′,7a′-hexahydrospiro[indoline-3,3′-pyrrolizine]-1′,2′-dicarboxamide] | + (NAUC “+” refers to an observed NAUC <140% of positive control) | + (NAUC “+” refers to an observed NAUC <140% of positive control) | +++ (NAUC “+++” refers to an observed NAUC>170% of positive control) | – | – |
| C[C@]1(O)CC2C(C(=O)Nc3cc(Cl)cc(Cl)c3)C(C(=O)NS(C)(=O)=O)C3(C(=O)Nc4c(Cl)cc(Cl)cc43)N2C1 (stereo partly drawn) [Example 247, (6′S)-5,7-dichloro-N1′-(3,5-dichlorophenyl)-6′-hydroxy-6′-methyl-N2′-(methylsulfonyl)-2-oxo-1′,2′,5′,6′,7′,7a′-hexahydrospiro[indoline-3,3′-pyrrolizine]-1′,2′-dicarboxamide] | + (NAUC “+” refers to an observed NAUC <140% of positive control) | ++ (NAUC “++” refers to an observed NAUC 170-140% of positive control) | +++ (NAUC “+++” refers to an observed NAUC>170% of positive control) | – | – |
| CN(C)S(=O)(=O)NC(=O)C1C(C(=O)Nc2cc(Cl)cc(Cl)c2)C2C[C@](C)(O)CN2C12C(=O)Nc1c(Cl)cc(Cl)cc12 (stereo partly drawn) [Example 248, (6′S)-5,7-dichloro-N1′-(3,5-dichlorophenyl)-N2′-(N,N-dimethylsulfamoyl)-6′-hydroxy-6′-methyl-2-oxo-1′,2′,5′,6′,7′,7a′-hexahydrospiro[indoline-3,3′-pyrrolizine]-1,2′-dicarboxamide] | + (NAUC “+” refers to an observed NAUC <140% of positive control) | +++ (NAUC “+++” refers to an observed NAUC>170% of positive control) | +++ (NAUC “+++” refers to an observed NAUC>170% of positive control) | – | – |
| CN(O)C(=O)[C@H]1[C@@H](C(=O)N(C)c2cc(Cl)cc(Cl)c2)[C@H]2CC(F)(F)CN2[C@]12C(=O)Nc1c(Cl)cc(Cl)cc12 [Example 260a, (1′R,2′S,3R,7a′R)-5,7-dichloro-N1′-(3,5-dichlorophenyl)-6′,6′-difluoro-N2′-hydroxy-N1′,N2′-dimethyl-2-oxo-1′,2′,5′,6′,7′,7a′-hexahydrospiro[indoline-3,3′-pyrrolizine]-1′,2′-dicarboxamide] | + (NAUC “+” refers to an observed NAUC <140% of positive control) | + (NAUC “+” refers to an observed NAUC <140% of positive control) | – | – | – |
| CN(O)C(=O)[C@@H]1[C@@H](C(=O)N(C)c2cc(Cl)cc(Cl)c2)[C@H]2CC(F)(F)CN2[C@]12C(=O)Nc1c(Cl)cc(Cl)cc12 [Example 260b, (1′R,2′R,3R,7a′R)-5,7-dichloro-N1′-(3,5-dichlorophenyl)-6′,6′-difluoro-N2′-hydroxy-N1′,N2′-dimethyl-2-oxo-1′,2′,5′,6′,7′,7a′-hexahydrospiro[indoline-3,3′-pyrrolizine]-1′,2′-dicarboxamide] | + (NAUC “+” refers to an observed NAUC <140% of positive control) | + (NAUC “+” refers to an observed NAUC <140% of positive control) | + (NAUC “+” refers to an observed NAUC <140% of positive control) | – | – |
| CN(C(=O)[C@H]1[C@H]2CC(F)(F)CN2[C@]2(C(=O)Nc3c(Cl)cc(Cl)cc32)[C@H]1C(=O)NS(=O)(=O)c1ccccc1)c1cc(Cl)cc(Cl)c1 [Example 261, (1′R,2′S,3R,7a′R)-5,7-dichloro-N1′-(3,5-dichlorophenyl)-6′,6′-difluoro-N1′-methyl-2-oxo-N2′-(phenylsulfonyl)-1′,2′,5′,6′,7′,7a′-hexahydrospiro[indoline-3,3′-pyrrolizine]-1,2′-dicarboxamide] | – | – | + (NAUC “+” refers to an observed NAUC <140% of positive control) | – | – |
| CN(C(=O)[C@H]1[C@H]2CCCN2[C@]2(C(=O)Nc3c(Cl)cc(Cl)cc32)[C@H]1C(=O)O)c1cc(Cl)cc(Cl)c1 [Example 266] | + (NAUC “+” refers to an observed NAUC <140% of positive control) | +++ (NAUC “+++” refers to an observed NAUC>170% of positive control) | +++ (NAUC “+++” refers to an observed NAUC>170% of positive control) | – | – |
| CC(C)(C)c1cccc(C2CC2NC(=O)[C@H]2[C@H]3CC(F)(F)CN3C3(C(=O)Nc4c(Cl)cc(Cl)cc43)[C@H]2C(=O)O)c1 (some centres unmarked) [Example 272] | + (NAUC “+” refers to an observed NAUC <140% of positive control) | + (NAUC “+” refers to an observed NAUC <140% of positive control) | ++ (NAUC “++” refers to an observed NAUC 170-140% of positive control) | – | – |
| COC(=O)[C@@]1(C)[C@@H](C(=O)N(C)c2cc(Cl)cc(Cl)c2)[C@H]2CC(F)(F)CN2C12C(=O)Nc1c(Cl)cc(Cl)cc12 (some centres unmarked) [Example 282] | – | – | – | + (NAUC “+” refers to an observed NAUC <140% of positive control) | + (NAUC “+” refers to an observed NAUC <140% of positive control) |
| CCN(C(=O)[C@H]1[C@H]2CC(F)(F)CN2C2(C(=O)Nc3c(Cl)cc(Cl)cc32)[C@H]1C(=O)O)c1cc(Cl)cc(Cl)c1 (some centres unmarked) [Example 289] | +++ (NAUC “+++” refers to an observed NAUC>170% of positive control) | +++ (NAUC “+++” refers to an observed NAUC>170% of positive control) | +++ (NAUC “+++” refers to an observed NAUC>170% of positive control) | – | – |
| CN(C(=O)[C@H]1[C@H]2CC(F)(F)CN2C2(C(=O)Nc3c(Cl)cc(Cl)cc32)[C@H]1C(=O)O)c1cc(Cl)c(OC(F)F)c(Cl)c1 (some centres unmarked) [Example 290] | ++ (NAUC “++” refers to an observed NAUC 170-140% of positive control) | +++ (NAUC “+++” refers to an observed NAUC>170% of positive control) | +++ (NAUC “+++” refers to an observed NAUC>170% of positive control) | – | – |
| COc1c(Cl)cc(N(C)C(=O)[C@H]2[C@H]3CC(F)(F)CN3C3(C(=O)Nc4c(Cl)cc(Cl)cc43)[C@H]2C(=O)O)cc1Cl (some centres unmarked) [Example 291] | + (NAUC “+” refers to an observed NAUC <140% of positive control) | + (NAUC “+” refers to an observed NAUC <140% of positive control) | +++ (NAUC “+++” refers to an observed NAUC>170% of positive control) | – | – |
